≈ marks a conversion by molar mass, not a printed value.

Consider 15 molecules from patent publication US20210309658A1, “ARYL COMPOUNDS FOR THE TREATMENT AND PROPHYLAXIS OF BACTERIAL INFECTION” (Hoffmann-La Roche Inc., priority 2018, published 2021).

Series [1] is described as follows: Lyophilisation Solubility Assay (LYSA). Particulars: aqueous buffer, thermodynamic from solid; 0.05 M phosphate buffer, pH 6.5; * = detection limit. The class given is physicochemical. As to the method: The solubility of compounds of present invention was assessed by LYSA assay. Samples were prepared in duplicate from 10 mM DMSO stock solutions (20 μL) diluted in 30 μL pure DMSO. After evaporation of DMSO with a centrifugal vacuum evaporator, the residue was dissolved in 0.05 M phosphate buffer (150 μL, pH 6.5), stirred for one hour and shook for two hours. After one night, the solution was filtered using a microtiter filter plate. Then the filtrate and its 1/10 dilution were analyzed by HPLC-UV. In addition a four-point calibration curve was prepared from the 10 mM stock solutions and used for the solubility determination of the compounds.

Series [2] in a line: Cytotoxicity assay (HepG2, CellTiter-Blue). The series is classed as cell-based. Particulars: human; HepG2 cells, 3 days treatment; * = detection limit. How it is done:
The cytotoxicity of compounds of present invention was assessed by HepG2 assay. HepG2 cells (ATCC HB-8065™) were seeded into 96-well plates (1.2×10^4 cells per well) and treated with compounds for 3 days, cell viability was measured at day 3 post compound treatment using the CellTiter-Blue® Cell Viability Assay (Promega, Cat. No. G8082). 20 μL of Cell titer blue buffer were added to each well of the cells, incubated for 3 hours at 37° C., and the fluorescence value was measured by a plate reader (Molecular Device SpectraMax M2). The CC50 value of each compound is plotted with GraphPad Prism using four parameter logistic equation.
In general terms: Resazurin is reduced to fluorescent resorufin, in cell work by metabolically active cells.

The next series has as its system E. coli (BW25113). Description: 50% growth inhibitory concentration (IC50) determination assay, E. coli. The class given is cell-based. Particulars: Escherichia coli, BW25113; growth inhibition, Iso-Sensitest broth, OD 600 nm over 16 h; read-out: IC50 (μM) E. coli K12 BW25113. As to the method: (§1) The in vitro antimicrobial activity of the compounds against E. coli (BW25113, obtained from Coli Genetic Stock Center, #7636) and K. pneumoniae (ATCC10031) was determined according to the following procedure:
(§2) The assay used a 10-points Iso-Sensitest broth medium to measure quantitatively the in vitro activity of the compounds against E. coli BW25113 and K. pneumoniae ATCC 10031.
(§3) Stock compounds in DMSO were serially two-fold diluted (range from 50 to 0.097 μM final concentration) in 384 wells microtiter plates and inoculated with 49 μL the bacterial suspension in Iso-Sensitest broth medium to have a final cell concentration of ˜5×10^5 CFU/mL in a final volume/well of 50 μL/well. Microtiter plates were incubated at 35±2° C.
(§4) Bacterial cell growth was determined with the measurement of optical density at λ=600 nm each 20 minutes over a time course of 16 h.
(§5) Growth inhibition was calculated during the logarithmic growth of the bacterial cells with determination of the concentration inhibiting 50% (IC50) of the growth.

In series [3] the test system is K. pneumoniae (ATCC10031). Put plainly: 50% growth inhibitory concentration (IC50) determination assay, K. pneumoniae. To be noted: Klebsiella pneumoniae, ATCC10031; growth inhibition, Iso-Sensitest broth, OD 600 nm over 16 h; * = detection limit; read-out: IC50 (μM) K. pneumoniae ATCC10031. The class given is cell-based. As to the method: as §1, §2, §3, §4, §5

For a further series, the system named is E. coli (ATCC 25922). Put plainly: Minimal Inhibitory Concentration (MIC) assay. The class given is cell-based. To be noted: Escherichia coli, ATCC25922; CAMHB, 20 hours at 35° C.; read-out: MIC (μg/mL) E. coli ATCC 25922. How it is done:
The in vitro potency of compounds to inhibit E. coli (ATCC 25922) growth was assessed by MIC (Minimal Inhibitory Concentration) assay. Samples were prepared from 10 mM DMSO stock solutions. After serial 2-fold dilution in DMSO in a master plate (Greiner, Cat No: 651201), 180 μL sterile distilled water was added to 20 μL each aliquot of the samples. Then 10 μL diluted compounds were transferred into a new assay plate (Costar, 3599).
The growth medium […] Mueller Hinton Broth (CAMHB) was prepared by adding the 20 mg per liter CaCl2 and 20 mg per liter MgCl2 into the MHB medium (Jianglai Company, sterilized).
Vials of each of the test microorganisms were maintained frozen in the vapor phase of a liquid nitrogen freezer. Took out the bacteria E. coli ATCC 25922 (KWIKSTIK, 0335K) from liquid nitrogen freezer, thawed it in room temperature, and diluted the bacterial in the CAMHB medium to achieve a final inoculum of 5×10^5 CFU/mL, 90 μL CAMHB with bacteria was dispensed to the assay plate and pipetted 5 times.
Then the assay plates were incubated for 20 hours at 35° C. in ambient air. Following incubation, the MIC (μg/mL), the lowest concentration of drug that inhibits visible growth of the microorganism was read and recorded throw the microscope.

Usually thermodynamic solubility stands for solubility found after equilibrating the solid with the medium. As usually defined, the CC50 is the concentration at which the toxic effect on the cells reaches its halfway point. Read a high CC50 as better tolerance by the cells. As to `CCNc1cc(F)cc2c1[nH]c1ncc(-c3cnc(NC4CCNC4)nc3)c(-n3ccc(C(F)(F)F)n3)c12` (stereo not shown) [Example 1.24, N-Ethyl-6-fluoro-3-[2-(pyrrolidin-3-ylamino)pyrimidin-5-yl]-4-[3-(trifluoromethyl)pyrazol-1-yl]-9H-pyrido[2,3-b]indol-8-amine], the thermodynamic solubility in series [1] is 8.3 µg/mL (≈ 15.8 µM). Half-maximal cytotoxicity in series [2] (CC50 at 3 days) was put at 11800 nM.
One may read the IC50 as the concentration needed to halve the response being measured. Turning to `CCNc1cc(F)cc2c1[nH]c1ncc(-c3cncc(C#N)c3)c(-n3nc(C(F)(F)F)c4c3CNC4)c12` [Example 1.34, 5-[8-(Ethylamino)-6-fluoro-4-[3-(trifluoromethyl)-5,6-dihydro-4H-pyrrolo[3,4-c]pyrazol-1-yl]-9H-pyrido[2,3-b]indol-3-yl]pyridine-3-carbonitrile], the IC50 in the series with E. coli (BW25113) is 2 µM; in series [3], at most 0.098 µM. In addition, the MIC with E. coli (ATCC 25922) is 0.727 µg/mL (≈ 1.44 µM). In addition, the CC50 at 3 days in series [2] was found to be 14100 nM.
Consider `CCNc1cc(F)cc2c1[nH]c1ncc(-c3cnc(C(N)=O)nc3)c(-n3ccc(C(F)(F)F)n3)c12` [Example 3.04, 5-[8-(Ethylamino)-6-fluoro-4-[3-(trifluoromethyl)pyrazol-1-yl]-9H-pyrido[2,3-b]indol-3-yl]pyrimidine-2-carboxamide], for which the IC50 was 0.204 µM in the series on E. coli (BW25113) and at most 0.098 µM in series [3]. In addition, the MIC in the series on E. coli (ATCC 25922) stood at 0.142 µg/mL (≈ 0.293 µM). In series [2], this molecule came in with a CC50 at 3 days of 20900 nM.
In turn, `CCNc1cc(F)cc2c1[nH]c1ncc(-c3cnc(NCC(C)(C)C(=O)O)nc3)c(-n3ccc(C(F)(F)F)n3)c12` [Example 2.05, 3-[[5-[8-(Ethylamino)-6-fluoro-4-[3-(trifluoromethyl)pyrazol-1-yl]-9H-pyrido[2,3-b]indol-3-yl]pyrimidin-2-yl]amino]-2,2-dimethyl-propanoic acid] had a thermodynamic solubility in series [1] of 24 µg/mL (≈ 43.1 µM). Also, in series [2], the CC50 at 3 days is 27600 nM.
For the molecule `CCNc1cc(F)cc2c1[nH]c1ncc(-c3cnc(C(C)O)nc3)c(-n3ccc(C(F)(F)F)n3)c12` (stereo not shown) [Example 1.54, 1-[5-[8-(ethylamino)-6-fluoro-4-[3-(trifluoromethyl)pyrazol-1-yl]-9H-pyrido[2,3-b]indol-3-yl]pyrimidin-2-yl]ethanol], the IC50 was 1.12 µM in the series with E. coli (BW25113) and 0.111 µM in series [3]. Also, in the series on E. coli (ATCC 25922), the MIC is 0.284 µg/mL (≈ 0.585 µM). The molecule further showed a CC50 at 3 days in series [2] of 12400 nM.
Turning to `CCNc1cc(F)cc2c1[nH]c1ncc(-c3cncc(C#N)c3)c(-n3cc(CN)c(C(F)(F)F)n3)c12` [Example 1.26, 5-[4-[4-(Aminomethyl)-3-(trifluoromethyl)pyrazol-1-yl]-8-(ethylamino)-6-fluoro-9H-pyrido[2,3-b]indol-3-yl]pyridine-3-carbonitrile], the half-inhibitory concentration (IC50) with E. coli (BW25113) was 0.374 µM; in series [3] it was at most 0.098 µM. Also, the MIC with E. coli (ATCC 25922) is 0.618 µg/mL (≈ 1.25 µM). In series [1], this molecule came in with a thermodynamic solubility of 32.5 µg/mL (≈ 65.7 µM).
For `CNc1cc(F)cc2c1[nH]c1ncc(-c3cncc(C#N)c3)c(-n3cc(C#N)cn3)c12` [Example 1.09, 5-[4-(4-Cyanopyrazol-1-yl)-6-fluoro-8-(methylamino)-9H-pyrido[2,3-b]indol-3-yl]pyridine-3-carbonitrile], the values for the IC50 (in the series with E. coli (BW25113); in series [3]) were 0.346 µM and at most 0.098 µM, respectively. Also, the MIC with E. coli (ATCC 25922) is 0.153 µg/mL (≈ 0.375 µM). Moreover, the CC50 at 3 days in series [2] is 14600 nM.
`CCNc1cc(F)cc2c1[nH]c1ncc(-c3cnc(C4(C(=O)O)CC4)nc3)c(-n3ccc(C(F)(F)F)n3)c12` [Example 2.01, 1-[5-[8-(Ethylamino)-6-fluoro-4-[3-(trifluoromethyl)pyrazol-1-yl]-9H-pyrido[2,3-b]indol-3-yl]pyrimidin-2-yl]cyclopropanecarboxylic Acid] returned a solubility (thermodynamic) in series [1] of 67 µg/mL (≈ 128 µM). Moreover, in series [2], half-maximal cytotoxicity (CC50 at 3 days) was put at 38600 nM.
`CCNc1cc(F)cc2c1[nH]c1ncc(-c3cncc(Cc4n[nH]c(=O)o4)c3)c(-n3ccc(C(F)(F)F)n3)c12` [Example 6.01, 5-[[5-[8-(ethylamino)-6-fluoro-4-[3-(trifluoromethyl)pyrazol-1-yl]-9H-pyrido[2,3-b]indol-3-yl]-3-pyridyl]methyl]-3H-1,3,4-oxadiazol-2-one]: the values for the IC50 (with E. coli (BW25113); in series [3]) were 0.827 µM and 0.441 µM, respectively. In the series with E. coli (ATCC 25922), the MIC was 0.731 µg/mL (≈ 1.36 µM). This molecule returned a CC50 at 3 days in series [2] of 11400 nM.
In the case of `CCNc1cc(F)cc2c1[nH]c1ncc(-c3cnc(CN)nc3)c(-n3ccc(C(F)(F)F)n3)c12` [Example 1.46, 3-[2-(Aminomethyl)pyrimidin-5-yl]-N-ethyl-6-fluoro-4-[3-(trifluoromethyl)pyrazol-1-yl]-9H-pyrido[2,3-b]indol-8-amine], the IC50 was 0.77 µM with E. coli (BW25113) and at most 0.098 µM in series [3]. The molecule also returned a thermodynamic solubility in series [1] of 23 µg/mL (≈ 48.9 µM). Further, it took 27400 nM to reach half-maximal cytotoxicity in series [2] (CC50 at 3 days).
The molecule `CCNc1cc(F)cc2c1[nH]c1ncc(-c3cnc(NC4CCNCC4)nc3)c(-n3ccc(C(F)(F)F)n3)c12` [Example 1.10, N-Ethyl-6-fluoro-3-[2-(4-piperidylamino)pyrimidin-5-yl]-4-[3-(trifluoromethyl)pyrazol-1-yl]-9H-pyrido[2,3-b]indol-8-amine] gave a solubility (thermodynamic) in series [1] of 7.6 µg/mL (≈ 14.1 µM).
As for `CCNc1cc(F)cc2c1[nH]c1ncc(-c3cncc(CN)c3)c(-n3ccc(C(F)(F)F)n3)c12` [Example 1.45, 3-[5-(Aminomethyl)-3-pyridyl]-N-ethyl-6-fluoro-4-[3-(trifluoromethyl)pyrazol-1-yl]-9H-pyrido[2,3-b]indol-8-amine], the IC50 was 2.04 µM in the series on E. coli (BW25113) and at most 0.098 µM in series [3]. The solubility (thermodynamic) in series [1] is 16 µg/mL (≈ 34.1 µM).
On to `CCNc1cc(F)cc2c1[nH]c1ncc(-c3cnc(OC4CCNCC4)nc3)c(-n3ccc(C(F)(F)F)n3)c12` [Example 1.53, N-ethyl-6-fluoro-3-[2-(4-piperidyloxy)pyrimidin-5-yl]-4-[3-(trifluoromethyl)pyrazol-1-yl]-9H-pyrido[2,3-b]indol-8-amine], for which the IC50 in the series on E. coli (BW25113) amounted to 1.29 µM; in series [3], 0.121 µM. In addition, in series [1], the solubility (thermodynamic) is 21 µg/mL (≈ 38.9 µM).
As for `CNc1cc(F)cc2c1[nH]c1ncc(-c3cnc(C4(C(=O)O)CC4)nc3)c(-n3ccc(C(F)(F)F)n3)c12` [Example 2.02, 1-[5-[6-Fluoro-8-(methylamino)-4-[3-(trifluoromethyl)pyrazol-1-yl]-9H-pyrido[2,3-b]indol-3-yl]pyrimidin-2-yl]cyclopropanecarboxylic acid], the IC50 was 1.67 µM with E. coli (BW25113) and 0.254 µM in series [3]. In series [1], this molecule showed a thermodynamic solubility of 148 µg/mL (≈ 289 µM). Besides, the CC50 at 3 days in series [2] stood at 62600 nM.
As for `CCNc1cc(F)cc2c1[nH]c1ncc(-c3cnc(OC)nc3)c(-n3nc(C#N)c4c3CNCC4)c12` [Example 1.39, 1-[8-(Ethylamino)-6-fluoro-3-(2-methoxypyrimidin-5-yl)-9H-pyrido[2,3-b]indol-4-yl]-4,5,6,7-tetrahydropyrazolo[3,4-c]pyridine-3-carbonitrile], the figures for the IC50 (with E. coli (BW25113); in series [3]) were 2.37 µM and at most 0.098 µM, respectively. This molecule also showed a solubility (thermodynamic) in series [1] of 42 µg/mL (≈ 86.9 µM). The midpoint of cytotoxicity in series [2], the CC50 at 3 days, lay at 49000 nM.
